Assays:
[1] = log P by HPLC (OECD Guideline 117), method [b] neutral range; type: physicochemical; settings: HPLC; for logP[b]: method [b] neutral range; for chromatographic logP: reversed-phase C18 HPLC column, neutral range, pH 7.8
Description: (§1) The log P values were determined analogously to OECD Guideline 117 (EC Directive 92/69/EEC) by HPLC (high-performance liquid chromatography) using reversed-phase columns (C 18), by the following methods:
[b] The LC-MS determination in the neutral range is effected at pH 7.8 with 0.001 molar aqueous ammonium hydrogencarbonate solution and acetonitrile as eluents; linear gradient from 10% acetonitrile to 95% acetonitrile.

[2] = log P by HPLC (OECD Guideline 117), method [a] acidic range; type: physicochemical; settings: for logP[a]: HPLC, method [a] acidic range
Description: as §1
[a] The LC-MS determination in the acidic range is effected at pH 2.7 with 0.1% aqueous formic acid and acetonitrile (contains 0.1% formic acid) as eluents; linear gradient from 10% acetonitrile to 95% acetonitrile.

[3] = system: Tetranychus urticae; assay: Tetranychus urticae spray test, OP-resistant (TETRUR); type: in vivo; settings: after 6 days
Description: Tetranychus urticae—Spray Test, OP-Resistant (TETRUR)
• Solvent: 78.0 parts by weight of acetone • 1.5 parts by weight of dimethylformamide • Emulsifier: 0.5 part by weight of alkylaryl polyglycol ether
To produce an appropriate active ingredient formulation, 1 part by weight of active ingredient is mixed with the specified amounts of solvent and emulsifier, and the concentrate is diluted to the desired concentration with emulsifier-containing water.
Discs of bean leaves (Phaseolus vulgaris) infested by all stages of the greenhouse red spider mite (Tetranychus urticae) are sprayed with an active ingredient formulation of the desired concentration.
After 6 days, the efficacy in % is determined 100% means that all the spider mites have been killed; 0% means that none of the spider mites have been killed.

[4] = reversed-phase C18 HPLC column, pH 2.7, HPLC method [a], acidic range, read-out: logP[a]
[5] = reversed-phase C18 HPLC column, pH 2.7, HPLC, acidic range, pH 2.7, read-out: log P[a]

Row | SMILES | logP[b] [1] | logP[a] [2] | also measured
1 | CCCOc1nn(-c2ccc(C)c(SCC(F)(F)F)c2)c(=O)n1C1CC1 [Example 123] | 4.57 | 4.66 | efficacy ([3]; application rate of 500 g/ha): 100%
2 | Cc1cc(F)c(-n2nc(C(F)(F)F)n(CC(F)(F)F)c2=O)cc1[S+]([O-])CC(F)(F)F (stereo not shown) [Example 56] | 3.09 | 3.20 | efficacy ([3]; application rate of 100 g/ha): 90%
3 | CCSc1nn(-c2cc(SCC(F)(F)F)c(C)cc2F)c(=O)n1C [Example 273, 5-(Ethylsulphanyl)-2-{2-fluoro-4-methyl-5-[(2,2,2-trifluoroethyl)sulphanyl]phenyl}-4-methyl-2,4-dihydro-3H-1,2,4-triazol-3-one] | – | – | chromatographic logP [1]: 3.44; chromatographic logP [2, 4]: 3.51; chromatographic logP [2, 5]: 3.51; pest or weed control at 500 g/ha ([3]; Tetranychus urticae, 144 h, application rate of 500 g/ha, read-out: efficacy): 100%
4 | Cc1cc(F)c(-n2nc(C(C)C)n(C3CC3)c2=O)cc1[S+]([O-])CC(F)(F)F (stereo not shown) [Example 43] | 2.47 | 2.52 | efficacy ([3]; application rate of 500 g/ha): 100%
5 | C=CCn1c(SC(C)C)nn(-c2cc([S+]([O-])CC(F)(F)F)c(C)cc2F)c1=O (racemic) [Example 285] | 3.17 | 3.24 | efficacy ([3]; application rate of 500 g/ha): 100%
6 | C=CCn1c(SCCC)nn(-c2cc([S+]([O-])CC(F)(F)F)c(C)cc2F)c1=O (stereo not shown) [Example 430] | 3.33 | 3.18 | efficacy ([3]; application rate of 500 g/ha): 90%
7 | Cc1cc(F)c(-n2nc(C)n(N)c2=O)cc1SCC(F)(F)F [Example 200] | 2.13 | 2.18 | efficacy ([3]; application rate of 500 g/ha): 100%
8 | CCCc1nn(-c2cc(SCC(F)(F)F)c(C)cc2F)c(=O)n1C1CC1 [Example 79] | 3.56 | 3.64 | efficacy ([3]; application rate of 500 g/ha): 100%
9 | C=CCn1c([S+]([O-])C(C)C)nn(-c2cc([S+]([O-])CC(F)(F)F)c(C)cc2F)c1=O (stereo not shown) [Example 249] | 2.26 | 2.32 | efficacy ([3]; application rate of 500 g/ha): 90%
10 | COc1ccc(-n2nc(C(F)(F)F)n(C3CC3)c2=O)cc1[S+]([O-])CC(F)(F)F (stereo not shown) [Example 53] | 2.93 | 3.03 | –
11 | COC(=O)c1nn(-c2cc(SSc3cc(-n4nc(C(=O)OC)n(C(C)C)c4=O)c(F)cc3C)c(C)cc2F)c(=O)n1C(C)C [XXVIII-1, Dimethyl 1,1′-[disulphanediylbis(6-fluoro-4-methylbenzene-3,1-diyl)]bis(4-isopropyl-5-oxo-4,5-dihydro-1H-1,2,4-triazole-3-carboxylate)] | – | – | chromatographic logP [2, 5]: 4.11
12 | Cc1ccc(SSc2cc(Br)ccc2C)cc1Br [4-Bromo-2-[(3-bromo-4-methylphenyl)disulphanyl]-1-methylbenzene] | – | – | chromatographic logP [1]: > 7.36; chromatographic logP [2, 5]: > 7.36
13 | COc1nn(-c2cc([S+]([O-])CC(F)(F)F)c(Br)cc2F)c(=O)n1C (stereo not shown) [Example 174] | 2.15 | 2.21 | –
14 | CC(C)n1c(Br)n[nH]c1=O [5-Bromo-4-isopropyl-2,4-dihydro-3H-1,2,4-triazol-3-one] | – | – | chromatographic logP [1]: 0.83; chromatographic logP [2, 5]: 0.86
15 | Cc1ccc(-n2nc(OC(C)C)n(C)c2=O)cc1[S+]([O-])CC(F)(F)F (stereo not shown) [Example 163] | 2.80 | 2.87 | –
16 | COc1nn(-c2ccc(Br)c(SCC(F)(F)F)c2)c(=O)n1C [Example 168] | 3.54 | 3.60 | –
17 | Cc1cc(F)c(-n2nc(C(=O)O)n(C(C)C)c2=O)cc1SCC(F)(F)F [1-{2-Fluoro-4-methyl-5-[(2,2,2-trifluoroethyl)sulphanyl]phenyl}-4-isopropyl-5-oxo-4,5-dihydro-1H-1,2,4-triazole-3-carboxylic acid] | – | – | chromatographic logP [2, 5]: 2.16
18 | Cc1cc(C)c([S+]([O-])CC(F)(F)F)cc1-n1nnn(C)c1=O (racemic) [Example 297] | 1.96 | 1.96 | –
19 | Nc1cc(SCC(F)(F)F)c(Br)cc1F [IVa-14, 4-Bromo-2-fluoro-5-[(2,2,2-trifluoroethyl)sulphanyl]aniline] | – | – | chromatographic logP [1]: 3.12; chromatographic logP [2, 5]: 3.15
20 | O=c1n(-c2cc(SCC(F)(F)F)c(Cl)cc2F)nc(OCC(F)(F)F)n1C1CC1 [Example 186] | 3.89 | 3.96 | –
21 | CCOc1nn(-c2ccc(C)c(SCC(F)(F)F)c2)c(=O)n1OC [Example 227] | 3.70 | 3.76 | –
22 | Cc1cc(F)c(-n2nn[nH]c2=O)cc1SCC(F)(F)F [Example 299, 1-{2-Fluoro-4-methyl-5-[(2,2,2-trifluoroethyl)sulphanyl]phenyl}-1,4-dihydro-5H-tetrazol-5-one] | – | – | chromatographic logP [1]: 0.9; chromatographic logP [2, 4]: 2.45; chromatographic logP [2, 5]: 2.45

Row | SMILES | logP[b] [1] | logP[a] [2] | also measured
23 | CCc1nn(-c2cc([S+]([O-])CC(F)(F)F)c(C)cc2F)c(=O)n1-c1cccnc1 (racemic) [Example 354] | 1.97 | 1.98 | –
24 | Cc1ccc(-n2nc(OC3CCOC3)n(C)c2=O)cc1SCC(F)(F)F (stereo not shown) [Example 156] | 3.27 | 3.27 | –
25 | N#Cc1cc(F)c(-n2nc(C(F)(F)F)oc2=O)cc1SCC(F)(F)F [Example 308] | 3.40 | 3.47 | –
26 | CCCOC1=CC(=O)N(c2cc([S+]([O-])CC(F)(F)F)c(C)cc2F)C1 (stereo not shown) [Example 333] | 2.52 | 2.57 | –
27 | COc1nn(-c2ccc(C(F)(F)F)c([S+]([O-])CC(F)(F)F)c2)c(=O)n1C1CC1 (stereo not shown) [Example 147] | 3.19 | 3.27 | –
28 | COC1=CC(=O)N(c2cc(SCC(F)(F)F)c(C)cc2Cl)C1 [Example 319] | 2.98 | 3.02 | –
29 | N#Cc1cc(F)c(-n2nc(C(F)(F)F)oc2=O)cc1[S+]([O-])CC(F)(F)F (racemic) [Example 309] | 2.80 | 2.86 | –
30 | N#Cc1cc(F)c(-n2nc(C(F)(F)F)n(C3CC3)c2=O)cc1F [XXIV-1, 4-[4-Cyclopropyl-5-oxo-3-(trifluoromethyl)-4,5-dihydro-1H-1,2,4-triazol-1-yl]-2,5-difluorobenzonitrile] | – | – | log P[a] ([2]; pH 2.7): 2.90; chromatographic logP ([2]; pH 2.7, log P[a]): 2.91
31 | Cc1ccc(-n2nc(OCC(C)C)n(C)c2=O)cc1[S+]([O-])CC(F)(F)F (stereo not shown) [Example 167] | 3.26 | 3.31 | –
32 | COc1nn(-c2ccc(C(F)(F)F)c([S+]([O-])CC(F)(F)F)c2)c(=O)n1C (stereo not shown) [Example 96, 5-Methoxy-4-methyl-2-{3-[(2,2,2-trifluoroethyl)sulphinyl]-4-(trifluoromethyl)phenyl}-2,4-dihydro-3H-1,2,4-triazol-3-one] | – | – | chromatographic logP [1]: 2.83; chromatographic logP [2, 4]: 2.89; chromatographic logP [2, 5]: 2.89
33 | N#Cc1cc(F)c(-n2nc(C(F)(F)F)n(C3CC3)c2=O)cc1[S+]([O-])CC(F)(F)F (stereo not shown) [Example 47, 4-[4-Cyclopropyl-5-oxo-3-(trifluoromethyl)-4,5-dihydro-1H-1,2,4-triazol-1-yl]-5-fluoro-2-[(2,2,2-trifluoroethyl)sulphinyl]benzonitrile] | – | – | chromatographic logP [1]: 2.84; chromatographic logP [2, 4]: 2.92; chromatographic logP [2, 5]: 2.92
34 | N#Cc1cc(F)c(Br)cc1SCC(F)(F)F [VIIa-18, 4-Bromo-5-fluoro-2-[(2,2,2-trifluoroethyl)sulphanyl]benzonitrile] | – | – | chromatographic logP [1]: 3.26; chromatographic logP [2, 5]: 3.32
35 | Cc1cc(F)c(NC(=S)NCC(F)(F)F)cc1[S+]([O-])CC(F)(F)F (stereo not shown) [IIb-1, 1-{2-Fluoro-4-methyl-5-[(2,2,2-trifluoroethyl)sulphinyl]phenyl}-3-(2,2,2-trifluoroethyl)thiourea] | – | – | chromatographic logP [1]: 2.3; chromatographic logP [2, 5]: 2.34
36 | Cc1cc(F)c(-n2nc(OC3CCOC3)n(C)c2=O)cc1[S+]([O-])CC(F)(F)F (stereo not shown) [Example 161] | 1.84 | 1.89 | –
37 | CCn1c(OC)nn(-c2cc([S+]([O-])CC(F)(F)F)c(C)cc2F)c1=O (stereo not shown) [Example 181] | 2.07 | 2.11 | –
38 | C=CCSc1nn(-c2cc([S+]([O-])CC(F)(F)F)c(C)cc2F)c(=O)n1CC=C (stereo not shown) [Example 432] | 3.05 | 2.94 | –
39 | Cc1cc(F)c(-n2nc(Br)n(Cc3ccccc3)c2=O)cc1[S+]([O-])CC(F)(F)F (stereo not shown) [Example 443] | 3.00 | 3.08 | –
40 | Cc1cc(F)c(-n2nnn(-c3ccc(C(F)(F)F)cc3)c2=O)cc1[S+]([O-])CC(F)(F)F (racemic) [Example 445] | 3.72 | 3.75 | –
41 | CC=Cc1nn(-c2cc(SCC(F)(F)F)c(C)cc2F)c(=O)n1C1CC1 [Example 81] | 3.49 | 3.55 | –
42 | CCCSc1nn(-c2cc(SCC(F)(F)F)c(C)cc2F)c(=O)n1CC [Example 426] | 4.29 | 4.37 | –
43 | Cc1cc(C)c(-n2ncn(Cc3ccccc3)c2=O)cc1SCC(F)(F)F [Example 373] | 3.47 | 3.55 | –

Source: patent publication US9981940B2, “Aryl sulfide derivatives and aryl sulfoxide derivatives as acaricides and insecticides” (BAYER CROPSCIENCE AKTIENGESELLSCHAFT, priority 2013, dated 2018)
